Target: MAPK14 (UniProt Q16539)
Assay: Inhibition of MAPK14 Kinase Activity

Chain of MAPK14 (Q16539 whole entry, looked up): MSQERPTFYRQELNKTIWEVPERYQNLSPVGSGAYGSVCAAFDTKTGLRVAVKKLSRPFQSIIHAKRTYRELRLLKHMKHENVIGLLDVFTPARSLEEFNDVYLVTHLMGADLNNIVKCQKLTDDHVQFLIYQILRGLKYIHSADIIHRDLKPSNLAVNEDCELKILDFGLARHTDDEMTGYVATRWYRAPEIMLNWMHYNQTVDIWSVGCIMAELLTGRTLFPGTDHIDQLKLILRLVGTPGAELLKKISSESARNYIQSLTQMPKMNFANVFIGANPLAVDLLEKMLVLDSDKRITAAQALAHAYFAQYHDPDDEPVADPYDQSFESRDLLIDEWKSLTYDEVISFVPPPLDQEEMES

Compound	IC50 [µM]
Cc1nc(-c2ccc3nc(N)n(S(=O)(=O)C(C)C)c3c2)c(-c2ccc(F)cc2F)n1Cc1ccccc1	≤ 5
CC(C)S(=O)(=O)n1c(N)nc2ccc(-c3c(-c4ccccc4)ncn3[C@@H](CO)c3ccccc3)cc21	≤ 5
CC(C)S(=O)(=O)n1c(N)nc2ccc(-c3nc(-c4ccc(Cl)cc4)[nH]c3-c3ccccc3)cc21	≤ 5
CC(C)S(=O)(=O)n1c(N)nc2ccc(-c3c(-c4ccccc4)ncn3C3CCN(C(=O)OC(C)(C)C)CC3)cc21	≤ 5
CC(C)S(=O)(=O)n1c(N)nc2ccc(-c3nc(-c4c(F)cccc4Cl)[nH]c3-c3ccc(F)cc3)cc21	≤ 5
CC(C)S(=O)(=O)n1c(N)nc2ccc(-c3nc(C4CCN(CCC(F)(F)F)CC4)[nH]c3-c3ccccc3)cc21	≤ 5
CC(C)S(=O)(=O)n1c(N)nc2ccc(-c3c(-c4ccccc4)ncn3C3CC(C)(C)NC(C)(C)C3)cc21	≤ 5
Nc1nc2ccc(-c3nc(-c4c(F)cccc4F)[nH]c3-c3ccccc3)cc2n1S(=O)(=O)C1CCCC1	≤ 5
CC(C)S(=O)(=O)n1c(N)nc2ccc(-c3nc(-c4ccc(OCCCN(C)C)c(F)c4)[nH]c3-c3ccccc3)cc21	≤ 5
CC(C)S(=O)(=O)n1c(N)nc2ccc(-c3c(-c4ccccc4)ncn3CCNC(=O)OC(C)(C)C)cc21	≤ 5
CC(C)S(=O)(=O)n1c(N)nc2ccc(-c3nc(C4CCN(Cc5ccccn5)CC4)[nH]c3-c3ccccc3)cc21	≤ 5
Cc1ccccc1-c1nc(-c2ccc3nc(N)n(S(=O)(=O)C(C)C)c3c2)c(-c2ccccc2)[nH]1	≤ 5
CC(C)S(=O)(=O)n1c(N)nc2ccc(-c3c(-c4ccccc4)ncn3Cc3ccc(F)cc3)cc21	≤ 5
CC(C)S(=O)(=O)n1c(N)nc2ccc(-c3c(-c4ccccc4)nc(-c4cccs4)n3C)cc21	≤ 5
CC(C)S(=O)(=O)n1c(N)nc2ccc(-c3nc(-c4c(F)cccc4F)[nH]c3-c3ccccc3)cc21	≤ 5
CC(C)S(=O)(=O)n1c(N)nc2ccc(-c3c(-c4ccccc4F)nc(C#C[Si](C)(C)C)n3C3CC3)cc21	≤ 5
CC(C)S(=O)(=O)n1c(N)nc2ccc(-c3nc(-c4c(F)cccc4C(F)(F)F)[nH]c3-c3ccccc3)cc21	≤ 5
CC(C)S(=O)(=O)n1c(N)nc2ccc(-c3c(-c4ccc(F)cc4)ncn3C)cc21	≤ 5
CC(C)S(=O)(=O)n1c(N)nc2ccc(-c3nc(-c4ccsc4)[nH]c3-c3ccc(F)cc3)cc21	≤ 5
Nc1ccccc1Cc1nc2ccc(-c3[nH]cnc3-c3ccccc3)cc2[nH]1	≤ 5
Nc1nc2ccc(-c3nc[nH]c3-c3ccccc3)cc2s1	≤ 5
CC(C)S(=O)(=O)n1c(N)nc2ccc(-c3c(-c4ccccc4F)ncn3[C@H]3CC[C@H](O)CC3)cc21	≤ 5
CC(C)S(=O)(=O)n1c(N)nc2ccc(-c3c(-c4cccc(F)c4)ncn3[C@H]3CC[C@H](O)CC3)cc21	≤ 5
CC(C)S(=O)(=O)n1c(N)nc2ccc(-c3nc(-c4cccc(OCCC5=CC=CNC=C5)c4)[nH]c3-c3ccccc3)cc21	≤ 5
CC(C)S(=O)(=O)n1c(N)nc2ccc(-c3c(-c4ccccc4)ncn3Cc3ccccc3F)cc21	≤ 5
CCc1ccc(-c2nc(-c3ccc4nc(N)n(S(=O)(=O)C(C)C)c4c3)c(-c3ccc(F)cc3)[nH]2)s1	≤ 5
Cc1nc(-c2ccc3nc(N)n(S(=O)(=O)C(C)C)c3c2)c(-c2ccc(F)cc2F)[nH]1	≤ 5
CC(C)S(=O)(=O)n1c(N)nc2ccc(-c3c(-c4ccc(F)cc4F)ncn3C3CCCCC3)cc21	≤ 5

Compound	IC50 [µM]
CNc1ccc(-c2nc(-c3ccc4nc(N)n(S(=O)(=O)C(C)C)c4c3)c(-c3ccccc3)[nH]2)c(F)c1	≤ 5
CC(C)S(=O)(=O)n1c(N)nc2ccc(-c3nc(C4CCN(C(=O)OC(C)(C)C)CC4)[nH]c3-c3ccccc3)cc21	≤ 5
CC(C)S(=O)(=O)n1c(N)nc2ccc(-c3c(-c4ccccc4)ncn3C3CCOCC3)cc21	≤ 5
CC(C)S(=O)(=O)n1c(N)nc2ccc(-c3c(-c4ccccc4)ncn3Cc3ccncc3)cc21	≤ 5
Cc1cc(-c2ccc3nc(N)n(S(=O)(=O)C(C)C)c3c2)n(-c2ccccc2)n1	≤ 5
COc1ccc(-c2nc(-c3ccc4nc(N)n(S(=O)(=O)C(C)C)c4c3)c(-c3ccccc3)[nH]2)cc1	≤ 5
CC(C)S(=O)(=O)n1c(N)nc2ccc(-c3nc(C(F)(F)F)[nH]c3-c3ccccc3)cc21	≤ 5
CC(C)S(=O)(=O)n1c(N)nc2ccc(-c3c(-c4ccccc4F)nc(Br)n3C3CCCCC3)cc21	≤ 5
CC(C)S(=O)(=O)n1c(N)nc2ccc(-c3c(-c4ccccc4F)nc(C#CCCO)n3C3CC3)cc21	≤ 5
CC(C)S(=O)(=O)n1c(N)nc2ccc(-c3c(-c4ccccc4)nn4c3CCC4)cc21	≤ 5
CC(C)S(=O)(=O)n1c(N)nc2ccc(-c3nc[nH]c3-c3ccccc3F)cc21	≤ 5
CC(C)S(=O)(=O)n1c(N)nc2ccc(-c3nc(-c4ccccc4C(F)(F)F)[nH]c3-c3ccccc3)cc21	≤ 5
CC(C)S(=O)(=O)n1c(N)nc2ccc(-c3nc[nH]c3-c3ccccc3)cc21	≤ 5
CC(C)S(=O)(=O)n1c(N)nc2ccc(-c3c(-c4ccccc4)ncn3[C@H]3CC[C@H](O)CC3)cc21	≤ 5
CCn1cnc(-c2ccc(F)cc2)c1-c1ccc2nc(N)n(S(=O)(=O)C(C)C)c2c1	≤ 5
CC(C)S(=O)(=O)n1c(N)nc2ccc(-c3nc(-c4cccc(OCCN(C)C)c4)[nH]c3-c3ccccc3)cc21	≤ 5
CCc1nc(-c2ccccc2F)c(-c2ccc3nc(N)n(S(=O)(=O)C(C)C)c3c2)n1C1CC1	≤ 5
CCOC(=O)/C=C/c1nc(-c2ccc3nc(N)n(S(=O)(=O)C(C)C)c3c2)c(-c2ccccc2)[nH]1	≤ 5
CC(C)S(=O)(=O)n1c(N)nc2ccc(-c3nc(-c4ccc(F)cc4F)[nH]c3-c3ccc(F)cc3F)cc21	≤ 5
CC(C)S(=O)(=O)n1c(N)nc2ccc(-c3nc(-c4ccc(N(C)C)cc4)[nH]c3-c3ccccc3)cc21	≤ 5
CC(C)S(=O)(=O)n1c(N)nc2ccc(-c3nc(-c4ccc(OCCN5CCOCC5)c(F)c4)[nH]c3-c3ccccc3)cc21	≤ 5
CC(C)S(=O)(=O)n1c(N)nc2ccc(-c3c(-c4ccccc4)ncn3C)cc21	≤ 5
CC(C)S(=O)(=O)n1c(N)nc2ccc(-c3c(-c4ccccc4)ncn3CCCc3ccccc3)cc21	≤ 5
CC(C)S(=O)(=O)n1c(N)nc2ccc(-c3nc(-c4ccccc4N4CCOCC4)[nH]c3-c3ccccc3)cc21	≤ 5
CC(C)S(=O)(=O)n1c(N)nc2ccc(-c3nc(-c4ccc(F)cc4F)[nH]c3-c3ccccc3)cc21	≤ 5
CC(C)S(=O)(=O)n1c(N)nc2ccc(-c3nc(-c4cccc(OCCN5CCOCC5)c4)[nH]c3-c3ccccc3)cc21	≤ 5
CC(C)S(=O)(=O)n1c(N)nc2ccc(-c3c(-c4ccccc4)ncn3[C@@H]3CCCC[C@H]3CO)cc21	≤ 5

The remaining lines, values ahead:

IC50 [µM]	Compound
≤ 5	CC(C)S(=O)(=O)n1c(N)nc2ccc(-c3c(-c4ccccc4F)nc(-c4ccc(Cl)cc4)n3C3CC3)cc21
≤ 5	CC(C)S(=O)(=O)n1c(N)nc2ccc(-c3c(-c4ccccc4)ncn3-c3ccc([N+](=O)[O-])cc3)cc21
≤ 5	Cc1ccccc1-c1[nH]c(-c2ccc(F)cc2)nc1-c1ccc2nc(N)n(S(=O)(=O)C(C)C)c2c1
≤ 5	CC(C)S(=O)(=O)n1c(N)nc2ccc(-c3nc(C4CCN(C)CC4)[nH]c3-c3ccccc3)cc21
≤ 5	NCCc1nc2ccc(-c3c(-c4ccccc4)ncn3C3CCCCC3)cc2s1
≤ 5	CC(C)S(=O)(=O)n1c(N)nc2ccc(-c3nc(-c4ccncc4)[nH]c3-c3ccccc3)cc21
≤ 5	CCc1nc(-c2ccc3nc(N)n(S(=O)(=O)C(C)C)c3c2)c(-c2ccc(F)cc2)[nH]1
≤ 5	CC(C)S(=O)(=O)n1c(N)nc2ccc(-c3nc(-c4ccc([N+](=O)[O-])cc4F)[nH]c3-c3ccccc3)cc21
≤ 5	CC(C)S(=O)(=O)n1c(N)nc2ccc(-c3c(-c4cccc(F)c4)ncn3C3CC3)cc21
≤ 5	Cc1ccc(-c2nc(-c3ccc4nc(N)n(S(=O)(=O)C(C)C)c4c3)c(-c3ccccc3)[nH]2)cc1
≤ 5	CC(C)S(=O)(=O)n1c(N)nc2ccc(-c3c(-c4ccccc4)ncn3C3CCC(O)CC3)cc21 (centres undefined)
≤ 5	CC(C)S(=O)(=O)n1c(N)nc2ccc(-c3c(-c4ccccc4)ncn3C3CCC(N)CC3)cc21 (centres undefined)
≤ 5	CC(C)S(=O)(=O)n1c(N)nc2ccc(-c3nc(-c4ccccc4)[nH]c3-c3ccccc3)cc21
≤ 5	CC(C)S(=O)(=O)n1c(N)nc2ccc(-c3nc[nH]c3-c3cccc(F)c3)cc21
≤ 5	CC(C)S(=O)(=O)n1c(N)nc2ccc(-c3nc(C4CCNCC4)[nH]c3-c3ccccc3)cc21
≤ 5	CC(C)S(=O)(=O)n1c(N)nc2ccc(-c3nc(-c4cccc(F)c4F)[nH]c3-c3ccccc3)cc21
≤ 5	CC(C)S(=O)(=O)n1c(N)nc2ccc(-c3nc(C=O)[nH]c3-c3ccccc3)cc21
≤ 5	CC(C)S(=O)(=O)n1c(N)nc2ccc(-c3nc(-c4ccc5c(c4)OCO5)[nH]c3-c3ccccc3)cc21
≤ 5	CC(C)S(=O)(=O)n1c(Cc2ccccc2N)nc2ccc(-c3[nH]cnc3-c3ccccc3)cc21
≤ 5	CC(C)S(=O)(=O)n1c(N)nc2ccc(-c3c(-c4ccccc4)ncn3-c3ccc(N)cc3)cc21
≤ 5	CC(C)S(=O)(=O)n1c(N)nc2ccc(-c3c(-c4ccccc4)nc4ccccn34)cc21
≤ 5	CC(C)S(=O)(=O)n1c(N)nc2ccc(-c3nc(-c4ccc(N)cc4)[nH]c3-c3ccccc3)cc21
≤ 5	CC(C)S(=O)(=O)n1c(N)nc2ccc(-c3c(-c4ccccc4F)nc(Br)n3C3CC3)cc21
≤ 5	Cc1ccsc1-c1nc(-c2ccc3nc(N)n(S(=O)(=O)C(C)C)c3c2)c(-c2ccccc2)[nH]1
≤ 5	CC(C)S(=O)(=O)n1c(N)nc2ccc(-c3nc(-c4ccc([N+](=O)[O-])cc4)[nH]c3-c3ccccc3)cc21
≤ 5	CC(C)S(=O)(=O)n1c(N)nc2ccc(-c3nc(-c4c(Cl)cccc4Cl)[nH]c3-c3ccccc3)cc21
≤ 5	CC(C)S(=O)(=O)n1c(N)nc2ccc(-c3c(-c4ccc(F)cc4)nc4n3CCC4)cc21
≤ 5	CC(C)S(=O)(=O)n1c(N)nc2ccc(-c3nc(-c4ccc(NS(C)(=O)=O)cc4)[nH]c3-c3ccccc3)cc21
≤ 5	CC(C)n1cnc(-c2ccccc2)c1-c1ccc2nc(N)n(S(=O)(=O)C(C)C)c2c1
